Data taken from the supplement of paper PMC10307832.

How the values were obtained:
Test in all cases: relative viability (nuclei count vs DMSO), 5 days (fraction); higher = more cells survive
HOP-62 = tested on: HOP-62
Procedure, shortened: (§1)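 Relative viability divides the nuclei count in treated wells by that in vehicle wells. Lung cancer cell lines were seeded in 1536-well plates, dosed by pin tool the next day, and fixed and stained after 5 days in one step with final 0.05% Triton X-100, 1% formaldehyde and 1 ug/ml Hoechst. Dosing was a single drug or a fixed anchor-drug dose plus five library-drug doses (not always all listed) in √10 steps, and values are medians of duplicate plates imaged at 4×.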

NCI-H647 = tested on: NCI-H647
Procedure, shortened: as §1

LCLC-103H = tested on: LCLC-103H
Procedure, shortened: as §1

NCI-H2405 = tested on: NCI-H2405
Procedure, shortened: as §1

NCI-H1437 = tested on: NCI-H1437
Procedure, shortened: as §1

BEN = tested on: BEN
Procedure, shortened: as §1

HCC-44 = tested on: HCC-44
Procedure, shortened: as §1

LCLC-97TM1 = tested on: LCLC-97TM1
Procedure, shortened: as §1

NCI-H727 = tested on: NCI-H727
Procedure, shortened: as §1

HCC-827 = tested on: HCC-827
Procedure, shortened: as §1

RERF-LC-KJ = tested on: RERF-LC-KJ
Procedure, shortened: as §1

CAL-12T = tested on: CAL-12T
Procedure, shortened: as §1

LXF-289 = tested on: LXF-289
Procedure, shortened: as §1

201T = tested on: 201T
Procedure, shortened: as §1

NCI-H2228 = tested on: NCI-H2228
Procedure, shortened: as §1

SK-LU-1 = tested on: SK-LU-1
Procedure, shortened: as §1

NCI-H322M = tested on: NCI-H322M
Procedure, shortened: as §1

NCI-H3122 = tested on: NCI-H3122
Procedure, shortened: as §1

NCI-H2087 = tested on: NCI-H2087
Procedure, shortened: as §1

NCI-H1650 = tested on: NCI-H1650
Procedure, shortened: as §1

## NC(=O)Nc1cc(-c2cccc(F)c2)sc1C(=O)N[C@H]1CCCNC1 [AZD7762] + CC(C)C[C@H](NC(=O)[C@H](Cc1ccccc1)NC(=O)c1cnccn1)B(O)O [Bortezomib] (partner 0.002 µM)
HOP-62; first compound 0.01 µM
  relative viability: 0.817
HOP-62; first compound 0.03162 µM
  relative viability: 0.605
HOP-62; first compound 0.1 µM
  relative viability: 0.491
HOP-62; first compound 0.3162 µM
  relative viability: 0.725
HOP-62; first compound 1 µM
  relative viability: 0.43
NCI-H647; first compound 0.01 µM
  relative viability: 1.15
NCI-H647; first compound 0.03162 µM
  relative viability: 1.08
NCI-H647; first compound 0.1 µM
  relative viability: 0.919
NCI-H647; first compound 0.3162 µM
  relative viability: 0.634
NCI-H647; first compound 1 µM
  relative viability: 0.0894
LCLC-103H; first compound 0.01 µM
  relative viability: 1.19
LCLC-103H; first compound 0.03162 µM
  relative viability: 1.08
LCLC-103H; first compound 0.1 µM
  relative viability: 1.25
LCLC-103H; first compound 0.3162 µM
  relative viability: 0.95
LCLC-103H; first compound 1 µM
  relative viability: 0.867
NCI-H2405; first compound 0.01 µM
  relative viability: 0.933
NCI-H2405; first compound 0.03162 µM
  relative viability: 0.982
NCI-H2405; first compound 0.1 µM
  relative viability: 0.963
NCI-H2405; first compound 0.3162 µM
  relative viability: 0.943
NCI-H2405; first compound 1 µM
  relative viability: 0.796
NCI-H1437; first compound 0.01 µM
  relative viability: 0.407
NCI-H1437; first compound 0.03162 µM
  relative viability: 0.4
NCI-H1437; first compound 0.1 µM
  relative viability: 0.56
NCI-H1437; first compound 0.3162 µM
  relative viability: 0.58
NCI-H1437; first compound 1 µM
  relative viability: 0.433
BEN; first compound 0.01 µM
  relative viability: 0.902
BEN; first compound 0.03162 µM
  relative viability: 0.758
BEN; first compound 0.1 µM
  relative viability: 0.888
BEN; first compound 0.3162 µM
  relative viability: 0.821
BEN; first compound 1 µM
  relative viability: 0.636
HCC-44; first compound 0.01 µM
  relative viability: 0.797
HCC-44; first compound 0.03162 µM
  relative viability: 0.804
HCC-44; first compound 0.1 µM
  relative viability: 0.919
HCC-44; first compound 0.3162 µM
  relative viability: 0.705
HCC-44; first compound 1 µM
  relative viability: 0.862
LCLC-97TM1; first compound 0.01 µM
  relative viability: 0.767
LCLC-97TM1; first compound 0.03162 µM
  relative viability: 0.822
LCLC-97TM1; first compound 0.1 µM
  relative viability: 0.737
LCLC-97TM1; first compound 0.3162 µM
  relative viability: 0.335
LCLC-97TM1; first compound 1 µM
  relative viability: 0.634
NCI-H727; first compound 0.01 µM
  relative viability: 1.04
NCI-H727; first compound 0.03162 µM
  relative viability: 0.878
NCI-H727; first compound 0.1 µM
  relative viability: 0.556
NCI-H727; first compound 0.3162 µM
  relative viability: 0.446
NCI-H727; first compound 1 µM
  relative viability: 0.298
HCC-827; first compound 0.01 µM
  relative viability: 1.02
HCC-827; first compound 0.03162 µM
  relative viability: 1.05
HCC-827; first compound 0.1 µM
  relative viability: 1.16
HCC-827; first compound 0.3162 µM
  relative viability: 1.08
HCC-827; first compound 1 µM
  relative viability: 0.929
RERF-LC-KJ; first compound 0.01 µM
  relative viability: 1.16
RERF-LC-KJ; first compound 0.03162 µM
  relative viability: 1.11
RERF-LC-KJ; first compound 0.1 µM
  relative viability: 1.11
RERF-LC-KJ; first compound 0.3162 µM
  relative viability: 1.11
RERF-LC-KJ; first compound 1 µM
  relative viability: 1.14
CAL-12T; first compound 0.01 µM
  relative viability: 0.96
CAL-12T; first compound 0.03162 µM
  relative viability: 1.06
CAL-12T; first compound 0.1 µM
  relative viability: 0.931
CAL-12T; first compound 0.3162 µM
  relative viability: 0.641
CAL-12T; first compound 1 µM
  relative viability: 0.23
LXF-289; first compound 0.01 µM
  relative viability: 0.918
LXF-289; first compound 0.03162 µM
  relative viability: 0.947
LXF-289; first compound 0.1 µM
  relative viability: 1.07
LXF-289; first compound 0.3162 µM
  relative viability: 1
LXF-289; first compound 1 µM
  relative viability: 1.12
201T; first compound 0.01 µM
  relative viability: 1.09
201T; first compound 0.03162 µM
  relative viability: 1.12
201T; first compound 0.1 µM
  relative viability: 1.12
201T; first compound 0.3162 µM
  relative viability: 1.12
201T; first compound 1 µM
  relative viability: 1.19
NCI-H2228; first compound 0.01 µM
  relative viability: 1.04
NCI-H2228; first compound 0.03162 µM
  relative viability: 1.33
NCI-H2228; first compound 0.1 µM
  relative viability: 1.03
NCI-H2228; first compound 0.3162 µM
  relative viability: 0.723
NCI-H2228; first compound 1 µM
  relative viability: 0.389
SK-LU-1; first compound 0.01 µM
  relative viability: 1.34
SK-LU-1; first compound 0.03162 µM
  relative viability: 1.05
SK-LU-1; first compound 0.1 µM
  relative viability: 0.853
SK-LU-1; first compound 0.3162 µM
  relative viability: 0.36
SK-LU-1; first compound 1 µM
  relative viability: 0.269
NCI-H322M; first compound 0.01 µM
  relative viability: 1.09
NCI-H322M; first compound 0.03162 µM
  relative viability: 1.26
NCI-H322M; first compound 0.1 µM
  relative viability: 1.36
NCI-H322M; first compound 0.3162 µM
  relative viability: 1.39
NCI-H322M; first compound 1 µM
  relative viability: 1.33
NCI-H3122; first compound 0.01 µM
  relative viability: 1.04
NCI-H3122; first compound 0.03162 µM
  relative viability: 1.01
NCI-H3122; first compound 0.1 µM
  relative viability: 1.05
NCI-H3122; first compound 0.3162 µM
  relative viability: 0.966
NCI-H3122; first compound 1 µM
  relative viability: 1.09
NCI-H2087; first compound 0.01 µM
  relative viability: 0.88
NCI-H2087; first compound 0.03162 µM
  relative viability: 0.851
NCI-H2087; first compound 0.1 µM
  relative viability: 0.792
NCI-H2087; first compound 0.3162 µM
  relative viability: 0.972
NCI-H2087; first compound 1 µM
  relative viability: 1.01
NCI-H1650; first compound 0.01 µM
  relative viability: 0.217
NCI-H1650; first compound 0.03162 µM
  relative viability: 0.205
NCI-H1650; first compound 0.1 µM
  relative viability: 0.211
NCI-H1650; first compound 0.3162 µM
  relative viability: 0.203
NCI-H1650; first compound 1 µM
  relative viability: 0.204
